The target of the test is T1, cathepsin K (Homo sapiens, UniProt P43235).
T1 sequence (P43235 115-329): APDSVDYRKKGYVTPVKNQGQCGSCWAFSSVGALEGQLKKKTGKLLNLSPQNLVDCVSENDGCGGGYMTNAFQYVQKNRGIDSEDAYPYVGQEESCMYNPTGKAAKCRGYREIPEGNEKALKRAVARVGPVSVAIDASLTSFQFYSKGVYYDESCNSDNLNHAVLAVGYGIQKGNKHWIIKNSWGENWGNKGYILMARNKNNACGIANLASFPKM
Nature of the test: Cathepsin K inhibition studies (progress curve method, fluorogenic peptide substrate). Type of test: biochemical. As to conditions: human recombinant enzyme; substrate typically Cbz-Phe-Arg-AMC; 100 mM Na acetate pH 5.5, 20 mM cysteine, 5 mM EDTA, 10% DMSO. How it is done: Determination of Cathepsin K Proteolytic Catalytic Activity
All assays for cathepsin K were carried out with human recombinant enzyme. Standard assay conditions for the determination of kinetic constants used a fluorogenic peptide substrate, typically Cbz-Phe-Arg-AMC, and were determined in 100 mM Na acetate at pH 5.5 containing 20 mM cysteine and 5 mM EDTA. Stock substrate solutions were prepared at concentrations of 10 or 20 mM in DMSO with 20 uM final substrate concentration in the assays. All assays contained 10% DMSO. […] All assays were conducted at ambient temperature. Product fluorescence (excitation at 360 nm; emission at 460 nm) was monitored with a Perceptive Biosystems Cytofluor II fluorescent plate reader. […]
Potential inhibitors were evaluated using the progress curve method. […] For those compounds whose progress curves were linear, apparent inhibition constants (Ki,app) were calculated according to equation 1 (Brandt et al., Biochemitsry, 1989, 28, 140): […]
[AMC]=vsst+(v0−vss)[1−exp(−kobst)]/kobs (2) where [AMC] is the concentration of product formed over time t, v0 is the initial reaction velocity and vss is the final steady state rate. Values for kobs were then analyzed as a linear function of inhibitor concentration to generate an apparent second order rate constant (kobs/inhibitor concentration or kobs/[I]) describing the time-dependent inhibition. […]

For the compound `CC(C)C[C@H](NS(=O)(=O)c1cccc2cccnc12)C(=O)NC1COCC1=O` (stereo partly drawn) [4-(R,S)-Amino-N-[(8-quinolinesulfonyl)-S-leucine]-3-tetrahydrofuran-3-one], the Ki is above 10 µM.

Usually Ki stands for the dissociation constant of the complex between target and ligand, obtained from inhibition or displacement.
